Tested on: durch Pentagastrin stimulierte Säuresekretion des perfundierten Rattenmagens
Experiment: Inhibition of pentagastrin-stimulated acid secretion in the perfused rat stomach in vivo
Design: species or system Ratte
Description: Prüfung der sekretionshemmenden Wirkung am perfundierten Rattenmagen
In der folgenden Tabelle 2 ist der Einfluß der erfindungsgemäßen Verbindungen nach intravenöser Gabe auf die durch Pentagastrin stimulierte Säuresekretion des perfundierten Rattenmagens in vivo dargestellt.
Narkotisierten Ratten (CD-Ratte, weiblich, 200-250 g; 1,5 g/kg i.m. Urethan) wurde nach Tracheotomie das Abdomen durch einen medianen Oberbauchschnitt er-öffnet und ein PVC-Katheter transoral im Ösophagus sowie ein weiterer via Pylorus derart fixiert, daß die Schlauchenden eben noch in das Magenlumen hineinragten. Der aus dem Pylorus führende Katheter führte über eine seitliche Öffnung in der rechten Bauchwand nach außen.
Nach gründlicher Spülung (ca.50-100 ml) wurde der Magen mit 37 °C warmer physiologischer NaCl-Lösung kontinuierlich durchströmt (0,5 ml/min, pH 6,8-6,9; Braun-Unita I). In dem jeweils im 15 min-Abstand aufgefangenen (25 ml Meßzylinder) Effluat wurde der pH-Wert (pH-Meter 632, Glaselektrode EA 147; ⌀ = 5 mm, Metrohm) sowie durch Titration mit einer frisch zubereiteten 0,01 N NaOH bis pH 7 (Dosimat 655 Metrohm) die sezernierte HCl bestimmt.
Die Stimulation der Magensekretion erfolgte durch Dauerinfusion von 1µg/kg (=1,65 ml/h) i.v. Pentagastrin (V. fem. sin.) ca 30 min nach Operationsende (d.h. nach Bestimmung von 2 Vorfraktionen). […]

SMILES	Maximale Hemmung der Säureausscheidung ca. ED50 +) (µmol/kg) i.v. (i.v., interpolated dose that causes a maximal inhibition of HCl secretion by 50 %, head says 'ca.')	ED50 (Rattus norvegicus, iv; i.v.; interpolated dose that causes a maximal inhibition of HCl secretion by 50 %; head says 'ca.'; read-out: Maximale Hemmung der Säureausscheidung ca. ED50 +) (µmol/kg) i.v.) [µmol/kg]
COCC(=O)O[C@@H]1Cc2cc(F)ccc2[C@H]1Oc1cccn2c(CO)c(C)nc12 (relative stereo) [Beispiel 5, 8-(5-Fluor-trans-2-methoxyacetoxy-2,3-dihydro-1-indenyloxy)-3-hydroxymethyl-2-methyl-imidazo[1,2-a]pyridin]	~0,8 µmol/kg	
COc1ccc(C(=O)O[C@@H]2Cc3ccccc3[C@H]2Oc2cccn3c(CO)c(C)nc23)cc1 (relative stereo) [Beispiel 2, 3-Hydroxymethyl-8-[trans-2-(4-methoxybenzoyloxy)-2,3-dihydro-1-indenyloxy]-2-methyl-imidazo[1,2-a]pyridin]		~1.1
